According to patent publication US12391681B2, “(R)-3-(3-chloro-5-fluoro-2-((4-(1h-pyrazol-1-yl)-2-methylquinolin-8-yloxy)methyl)phenyl)morpholine derivatives and related compounds as bradykinin (BK) B2 receptor antagonist for treating skin diseases” (Pharvaris GmbH, priority 2019, dated 2025):

Target: T1, human bradykinin B2 receptor (hB2R) (Homo sapiens, UniProt P30411)
T1 sequence (P30411 1-391): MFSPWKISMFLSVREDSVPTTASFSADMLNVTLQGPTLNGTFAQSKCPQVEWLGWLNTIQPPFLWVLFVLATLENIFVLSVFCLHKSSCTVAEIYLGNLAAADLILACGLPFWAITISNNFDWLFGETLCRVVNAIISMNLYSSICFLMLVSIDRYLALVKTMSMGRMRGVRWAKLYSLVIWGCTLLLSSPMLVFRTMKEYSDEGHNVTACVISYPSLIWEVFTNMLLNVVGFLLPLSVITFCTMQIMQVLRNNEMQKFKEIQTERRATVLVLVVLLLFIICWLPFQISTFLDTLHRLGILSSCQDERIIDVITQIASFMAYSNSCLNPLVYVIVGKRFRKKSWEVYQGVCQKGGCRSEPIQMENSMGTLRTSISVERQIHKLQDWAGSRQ
Experiment: cell-based human bradykinin B2 receptor calcium mobilization (hB2R-CaM) assay
Conditions: antagonistic activity; HTS041C cells; bradykinin at EC80; 25 min preincubation at 37° C.; read-out: IC50-value towards human bradykinin B2 receptor (hB2R)
Description: The following cell-based human bradykinin B2 receptor calcium mobilization (hB2R-CaM) assay was used to determine the antagonistic activity of compounds selected from the example compounds Nos. 1 to 13 towards human bradykinin B2 receptor (hB2R). The assay is defined herein as a standard in vitro B2 receptor activity assay, which can be used to determine IC50 values of the compounds according to the present invention, e. g. the compounds shown in Examples 1-4.
The antagonistic activity of compounds according to the present invention was investigated with the hB2R-CaM assay using the B2 Bradykinin Receptor Stable Cell Line HTS041C (Eurofins, St. Charles MO) and the FLIPR Calcium 6 Assay Kit (Molecular Devices, Wokingham, UK) according to the instructions of the providers. CaM assay measurements were performed with a Flexstation 3 System (Molecular Devices) which allows the precise addition of compounds (B2R antagonists) and bradykinin (B2R agonist) to the cells and adjacent continuous recording of the time-dependent CaM assay signals.
HTS041C cells were cultured in high glucose DMEM cell culture medium (Lonza) supplemented with 10% heat-inactivated FBS (PAN Biotech), 10 mM HEPES, Penicillin/Streptomycin (200 U/mL, 200 μg/mL), 1× non-essential amino acids (Lonza), and 250 μg/mL G418 (Invivogen) in cell incubator at 37° C. in a 5% CO2 atmosphere. One day before the CaM assay experiments cells were seeded in 200 μL DMEM cell culture medium with reduced FBS (5%) and without G418 on clear bottom black 96 well plates (ThermoFisher #165305). Cell starvation was carried out by incubation (37° C., 5% CO2) of 70.000 cells/well for 24 h to 28 h. Immediately prior calcium dye-loading the medium was carefully aspirated and cells were washed with Hank's balanced salt solution (HBSS, Gibco) containing Ca^2+, Mg^2+ and 20 mM HEPES, adjusted to pH 7.4 (HBSS+).
For calcium dye-loading one FLIPR 6 assay aliquot was dissolved in 20 mL HBSS+. 150 μL of the dye loading solution was added to cell plate and incubated for 120 min at 37° C. and 5% CO2. After dye loading the cell plate was immediately transferred to the pre-warmed (37° C.) Flexstation 3 System for CaM assaying.
Freshly prepared compound (B2 receptor antagonists) dilution series (8 pt, n=2) and bradykinin (B2 receptor agonist) solution in non-binding plates (Costar) were transferred to the Flexstation System (source plate) shortly before starting the experiment. Bradykinin was added in EC80 concentration determined in n>3 preliminary experiments with 8 pt concentration response curves (n=8)). CaM assay was executed by Flexstation 3 System starting with recording of calcium-sensitive dye fluorescence in bottom-read Flex modus with ex/em=485 nm/525 nm, cut off(em)=515 nm After 20 s, 50 μL of 4-fold concentrated compound dilutions were added to the cells resulting in a final DMSO (Sigma) concentration of 0.1% in the cell plate. CaM signals were monitored for 80 s after additions for detection of potential agonistic activities. Prior to bradykinin stimulus compound- and vehicle-treated cells were incubated for 25 min at 37° C. within the Flexstation System. Then 50 μL of a 5-fold concentrated bradykinin solution (HBSS+, 0.1% DMSO) was added to trigger CaM signals (Read out: Max-Min values) which were measured for 80 s post bradykinin stimulus.
IC50 determinations were performed by 4 parameter logistic model curve fitting of the 8 pt (n=2) compound concentration response curves using XLFIT (IDBS) software.

SMILES | IC50
Cc1cc(-n2cc(F)cn2)c2cccc(OCc3c(Cl)cc(F)cc3[C@@H]3COCCN3C(=O)COC(F)F)c2n1 [Compound No. 1, (R)-1-(3-(3-chloro-5-fluoro-2-((4-(4-fluoro-1H-pyrazol-1-yl)-2-methylquinolin-8-yloxy)methyl)phenyl)morpholino)-2-(difluoromethoxy)ethanone] | ≤ 25 nM
[2H][C@@]1(c2cc(F)cc(Cl)c2COc2cccc3c(-n4cc(F)cn4)cc(C)nc23)COCCN1C(=O)COC(F)F [Compound No. 1A, 1-[(3R)-3-[3-chloro-5-fluoro-2-({[4-(4-fluoropyrazol-1-yl)-2-methylquinolin-8-yl]oxy}methyl)phenyl](3-deutero)morpholin-4-yl]-2-(difluoromethoxy)ethanone] | ≤ 25 nM
Cc1cc(-c2ncnn2C)c2cccc(OCc3c(Cl)cc(F)cc3[C@@H]3COCCN3C(=O)COC(F)F)c2n1 [Compound No. 2, (R)-1-(3-(3-chloro-5-fluoro-2-((2-methyl-4-(1-methyl-1H-1,2,4-triazol-5-yl)quinolin-8-yloxy)methyl)phenyl)morpholino)-2-(difluoromethoxy)ethanone] | ≤ 25 nM
CC1=N[C@H](c2cc(F)cc(Cl)c2COc2cccc3c(-n4cc(F)cn4)cc(C)nc23)CO1 [Compound No. 3, (R)-4-(3-chloro-5-fluoro-2-((4-(4-fluoro-1H-pyrazol-1-yl)-2-methylquinolin-8-yloxy)methyl)phenyl)-2-methyl-4,5-dihydrooxazole] | 501 to 5000 nM
Cc1cc(-n2cc(F)cn2)c2cccc(OCc3c(Cl)cc(F)cc3[C@@H]3COCC(=O)N3)c2n1 [compound 4] | 501 to 5000 nM
Cc1cc(-n2cc(F)cn2)c2cccc(OCc3c(Cl)cc(F)cc3[C@@H]3COCCN3)c2n1 [compound 5] | 501 to 5000 nM
Cc1cc(-n2cc(F)cn2)c2cccc(OCc3c(Cl)cc(F)cc3[C@@H]3COCCN3C(=O)[C@@H](C)O)c2n1 [compound 6] | 26 to 500 nM
Cc1cc(-n2cc(F)cn2)c2cccc(OCc3c(Cl)cc(F)cc3[C@@H]3COCCN3C(=O)C(C)(C)O)c2n1 [compound 7] | 26 to 500 nM
Cc1cc(-n2cc(F)cn2)c2cccc(OCc3c(Cl)cc(F)cc3[C@@H]3COCCN3C(=O)c3cnco3)c2n1 [compound 8] | 26 to 500 nM

Next, values leading:

IC50 | SMILES
26 to 500 nM | Cc1cc(-c2ncnn2C)c2cccc(OCc3c(Cl)cc(F)cc3[C@@H]3COCCN3C(=O)C(C)(C)O)c2n1 [compound 9]
≤ 25 nM | Cc1cc(-c2ncnn2C)c2cccc(OCc3c(Cl)cc(F)cc3[C@@H]3COCCN3C(=O)[C@H](C)O)c2n1 [compound 10]
≤ 25 nM | Cc1cc(-c2ncnn2C)c2cccc(OCc3c(Cl)cc(F)cc3[C@@H]3COCCN3C(=O)c3cnco3)c2n1 [compound 11]
26 to 500 nM | Cc1cc(-c2ncnn2C)c2cccc(OCc3c(Cl)cc(F)cc3[C@@H]3COCC(=O)N3)c2n1 [compound 12]
26 to 500 nM | Cc1cc(-c2ncnn2C)c2cccc(OCc3c(Cl)cc(F)cc3[C@@H]3COCCN3)c2n1 [compound 13]
